Where no end group is shown, it is not given here.
Legend:
E. coli ATCC 25922 [1] = format: cell-based, Escherichia coli; conditions: ATCC 25922, 5 h
Protocol: (§1) Minimal bactericidal concentrations (MBCs) were measured using the method which has been adopted from National Committee for Clinical Laboratory Standards (NCCLS), with modifications. In short, 50 μL peptide solutions were pipetted into microtiter plates at various concentrations ranging from 1 to 128 μM. Freshly grown bacteria were added to the each well in a density of 0.5–1 × 10^6 CFUmL^−1. Microtiter plated was incubated at 37 °C for 5 h. Fifty microliters of each incubation mixture was further serially diluted (up to 10^−3 of the initial bacterial concentration), transferred on agar plates and incubated overnight. On the following day, the number of colonies was evaluated and the initial CFU/well retrospectively calculated. The minimum bactericidal concentrations (μM) were determined as the lowest concentration of the peptides that prevented more than 99.9% bacteria growth.

E. coli UB1005 = format: cell-based, Escherichia coli; conditions: UB1005, 5 h
Protocol: as §1

S. typhimurium ATCC14028 = format: cell-based, Salmonella typhimurium; conditions: ATCC14028, 5 h
Protocol: as §1

S. aureus ATCC29213 = format: cell-based, Staphylococcus aureus; conditions: ATCC 29213, 5 h
Protocol: as §1

[2] = test system: Methicillin-resistant S. aureus ATCC 43300; conditions: S. aureus 43300 (methicillin-resistant); lowest concentration preventing more than 99.9% growth; 37 °C, 5 h; representative of three trials
Protocol: as §1, with “In” for “Minimal bactericidal concentrations (MBCs) were measured using the method which has been adopted from National Committee for Clinical Laboratory Standards (NCCLS), with modifications. In”

S. epidermidis ATCC12228 = format: cell-based, Staphylococcus epidermidis; conditions: ATCC12228, 5 h
Protocol: In short, 50 μL peptide solutions were pipetted into microtiter plates at various concentrations ranging from 1 to 128 μM. Freshly grown bacteria were added to the each well in a density of 0.5–1 × 10^6 CFUmL^−1. Microtiter plated was incubated at 37 °C for 5 h. Fifty microliters of each incubation mixture was further serially diluted (up to 10^−3 of the initial bacterial concentration), transferred on agar plates and incubated overnight. On the following day, the number of colonies was evaluated and the initial CFU/well retrospectively calculated. The minimum bactericidal concentrations (μM) were determined as the lowest concentration of the peptides that prevented more than 99.9% bacteria growth. Each test was reproduced at least 3 times using 6 replicates.

[3] = test system: 3 gram-negative strains tested; assay: Geometric mean of MBCs and therapeutic index, gram-negative strains; format: cell-based; conditions: MHC/GM for 3 gram-negative strains; >128 counted as 256 μM
Protocol: as §1, with “In” for “Minimal bactericidal concentrations (MBCs) were measured using the method which has been adopted from National Committee for Clinical Laboratory Standards (NCCLS), with modifications. In”
(§2) The therapeutic index (TI) is calculated by the ration of the minimum hemolytic concentration (MHC) to the geometric mean of the MBC (GM) to evaluate cell selectivity of peptides.

[4] = test system: 3 gram-positive strains tested; conditions: MHC/GM for 3 gram-positive strains; >128 counted as 256 μM
Protocol: as §1, with “In” for “Minimal bactericidal concentrations (MBCs) were measured using the method which has been adopted from National Committee for Clinical Laboratory Standards (NCCLS), with modifications. In”
as §2

[5] = test system: all of the 6 strains tested; assay: Geometric mean of MBCs and therapeutic index, all strains; format: cell-based; conditions: MHC/GM for all 6 strains; >128 counted as 256 μM
Protocol: as §1, with “In” for “Minimal bactericidal concentrations (MBCs) were measured using the method which has been adopted from National Committee for Clinical Laboratory Standards (NCCLS), with modifications. In”
as §2

[6] = test system: human red blood cells (hRBCs); assay: Hemolytic activity; conditions: concentration causing 5% hemolysis of human red blood cells; about 1% hRBC in PBS, 37 °C, 1 h, OD 576 nm
Protocol: The hemolytic activity of each peptide was evaluated using a modified method, as described previously[21][22]. […] Then, the collected hRBCs were washed three times with PBS (pH 7.2), centrifuged at 1000 × g for 5 min, and resuspended in PBS (final concentration, approximately 1%). Next, 50 μL of the hRBC suspension was placed into a 96-well cell culture plate with 50 μL of test peptide solution in PBS at different concentrations, and the mixture was incubated at 37 °C for 1 h. After incubation, the plate was centrifuged at 1000 × g for 5 min, the supernatant was transferred to a new 96-well cell culture plate, and the release of hemoglobin was measured by monitoring optical density (OD) at 576 nm. Untreated hRBCs suspension was used as a negative control, and the hRBCs treated with 0.1% Triton X-100 were employed as positive controls. Each test was reproduced at least 3 times using 6 replicates. Percent hemolysis was calculated using the following equation:

E. coli ATCC 25922 [7] = format: cell-based, Escherichia coli; conditions: ATCC 25922, 5 h; remark: listed apart in the source
Protocol: as §1, with “In short, 50 μL peptide solutions were pipetted into microtiter plates at various concentrations ranging from 1 to 128 μM.” left out, “growth. […] The salt sensitivity of the peptides was measured using a modified method, as described previously. […] The subsequent steps were consistent with the MBCs determination method.” for “growth.”

S. aureus ATCC 29213 = format: cell-based, Staphylococcus aureus; conditions: ATCC 29213, 5 h
Protocol: as §1, with “In short, 50 μL peptide solutions were pipetted into microtiter plates at various concentrations ranging from 1 to 128 μM.” left out, “growth. […] The salt sensitivity of the peptides was measured using a modified method, as described previously. […] The subsequent steps were consistent with the MBCs determination method.” for “growth.”

E. coli ATCC 25922 [8] = format: cell-based, Escherichia coli; conditions: ATCC 25922, 24 h
Protocol: The checkerboard titration method is commonly used to evaluate the synergy of different antibacterial combinations. First, 2-fold serial dilutions of the antibiotics and antimicrobial peptides were prepared. Subsequently, 50 μL each of different concentrations of antibiotics and of antimicrobial peptides was mixed and added into 100 μL of bacterial solution (containing approximately 0.5–1 × 10^6 CFU mL^−1) in each well of a 96-well plate. The plates were then incubated at 37 °C for 24 h. The subsequent steps were consistent with the MBCs determination method. The fractional inhibitory concentration (FIC) index (FICI) was calculated as follows: An FICI < 0.5 is considered to indicate synergy; 0.5 < FICI < 1.0 is considered additive; 1.0 < FICI < 4.0 is considered indifferent; and an FICI > 4.0 is considered antagonism.

Substance	Minimum bactericidal concentration (E. coli ATCC 25922 [1]) [µM]	Minimum bactericidal concentration (E. coli UB1005) [µM]	Minimum bactericidal concentration (S. typhimurium ATCC14028) [µM]	Minimum bactericidal concentration (S. aureus ATCC29213) [µM]	Minimum bactericidal concentration [2] [µM]	Minimum bactericidal concentration (S. epidermidis ATCC12228) [µM]	TI (therapeutic index), gram-negative [3]	TI (therapeutic index), gram-positive [4]	TI (therapeutic index), all strains [5]	MHC (minimum hemolytic concentration) [6] [µM]	MBC with CaCl2 (E. coli ATCC 25922 [7]) [µM]	MBC with FeCl3 (E. coli ATCC 25922 [7]) [µM]	MBC with KCl (E. coli ATCC 25922 [7]) [µM]	MBC with MgCl2 (E. coli ATCC 25922 [7]) [µM]	MBC with NH4Cl (E. coli ATCC 25922 [7]) [µM]	MBC with NaCl (E. coli ATCC 25922 [7]) [µM]	MBC with ZnCl2 (E. coli ATCC 25922 [7]) [µM]	MBC, control (E. coli ATCC 25922 [7]) [µM]	MBC with CaCl2 (S. aureus ATCC 29213) [µM]	MBC with FeCl3 (S. aureus ATCC 29213) [µM]	other results
AKLWALKAKLWALKAKLWALK-NH2 [AA3s1]	2	4	16	16	16	64	3.17	0.63	1.41	16											
AKLWLKAAKLWLKA-NH2 [AA2]	1	8	16	16	16	32	25.40	6.35	12.70	128	4	1	1	2	1	2	1	1	64	16	MBC with KCl (S. aureus ATCC 29213): 16 µM; MBC with MgCl2 (S. aureus ATCC 29213): 32 µM; MBC with NH4Cl (S. aureus ATCC 29213): 8 µM; MBC with NaCl (S. aureus ATCC 29213): 128 µM; MBC with ZnCl2 (S. aureus ATCC 29213): 8 µM; MBC, control (S. aureus ATCC 29213): 16 µM; FIC index in combination with Ceftazidime (E. coli ATCC 25922 [8]): 1; FIC index in combination with Chloramphenicol (E. coli ATCC 25922 [8]): 1; FIC index in combination with Ciprofloxacin (E. coli ATCC 25922 [8]): 0.75; FIC index in combination with Streptomycin (E. coli ATCC 25922 [8]): 0.5
AKLWLKAAKLWLKAAKLWLKA-NH2 [AA3]	2	2	4	4	4	4	3.17	2	2.52	8	2	2	1	2	2	2	1	2	4	4	MBC with KCl (S. aureus ATCC 29213): 4 µM; MBC with MgCl2 (S. aureus ATCC 29213): 4 µM; MBC with NH4Cl (S. aureus ATCC 29213): 4 µM; MBC with NaCl (S. aureus ATCC 29213): 4 µM; MBC with ZnCl2 (S. aureus ATCC 29213): 4 µM; MBC, control (S. aureus ATCC 29213): 4 µM; FIC index in combination with Ceftazidime (E. coli ATCC 25922 [8]): 1; FIC index in combination with Chloramphenicol (E. coli ATCC 25922 [8]): 1; FIC index in combination with Ciprofloxacin (E. coli ATCC 25922 [8]): 2
AKLWLKAAKLWLKAAKLWLKAAKLWLKA-NH2 [AA4]	8	32	128	32	32	32	0.03	0.03	0.03	1	8	8	4	8	8	64	4	8	128	32	MBC with KCl (S. aureus ATCC 29213): 32 µM; MBC with MgCl2 (S. aureus ATCC 29213): 32 µM; MBC with NH4Cl (S. aureus ATCC 29213): 32 µM; MBC with NaCl (S. aureus ATCC 29213): 32 µM; MBC with ZnCl2 (S. aureus ATCC 29213): 32 µM; MBC, control (S. aureus ATCC 29213): 32 µM
GKLWLKGGKLWLKG-NH2 [GG2]	4	32	64	128	64	128	12.70	2.52	5.66	>128	16	4	4	16	4	>128	4	4	>128	128	MBC with KCl (S. aureus ATCC 29213): 128 µM; MBC with MgCl2 (S. aureus ATCC 29213): >128 µM; MBC with NH4Cl (S. aureus ATCC 29213): 128 µM; MBC with NaCl (S. aureus ATCC 29213): >128 µM; MBC with ZnCl2 (S. aureus ATCC 29213): 128 µM; MBC, control (S. aureus ATCC 29213): 128 µM; FIC index in combination with Ceftazidime (E. coli ATCC 25922 [8]): 2; FIC index in combination with Chloramphenicol (E. coli ATCC 25922 [8]): 1; FIC index in combination with Ciprofloxacin (E. coli ATCC 25922 [8]): 2; FIC index in combination with Streptomycin (E. coli ATCC 25922 [8]): 1
GKLWLKGGKLWLKGGKLWLKGGKLWLKG-NH2 [GG4]	4	8	32	128	128	>128	1.59	0.10	0.40	16	4	4	4	4	4	4	4	4			
GLWKGKLGLWKGKLGLWKGKL-NH2 [GG3s2]	4	4	32	128	64	64	32	3.17	10.08	>128											
